Legend:
[1] = test system: Axl phosphorylation in transiently transfected HEK293T cells; experiment: Cellular Axl phosphorylation assay; assay type: cell-based; settings: Homo sapiens, HEK-293T; HEK293T cells transfected with Axl, 1 hour compound treatment, Phospho-Axl vs Total-Axl
Procedure, shortened: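 HEK293T cells transiently transfected with Axl (empty pcDNA_DEST_40 vector as minimum control) were treated with compound in DMSO for 1 h, then lysed. Total and phospho-Axl in lysates were measured by Mesoscale electrochemiluminescence immunoassay. IC50 was taken relative to the DMSO vehicle and empty-vector controls.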

TYRO3 = target: T1, TYRO3 (Homo sapiens, UniProt Q06418); experiment: LanthaScreen Eu kinase binding assay, TYRO3; settings: Tracer 236
T1 construct: purchased Life Technologies
T1 sequence (Q06418 41-890): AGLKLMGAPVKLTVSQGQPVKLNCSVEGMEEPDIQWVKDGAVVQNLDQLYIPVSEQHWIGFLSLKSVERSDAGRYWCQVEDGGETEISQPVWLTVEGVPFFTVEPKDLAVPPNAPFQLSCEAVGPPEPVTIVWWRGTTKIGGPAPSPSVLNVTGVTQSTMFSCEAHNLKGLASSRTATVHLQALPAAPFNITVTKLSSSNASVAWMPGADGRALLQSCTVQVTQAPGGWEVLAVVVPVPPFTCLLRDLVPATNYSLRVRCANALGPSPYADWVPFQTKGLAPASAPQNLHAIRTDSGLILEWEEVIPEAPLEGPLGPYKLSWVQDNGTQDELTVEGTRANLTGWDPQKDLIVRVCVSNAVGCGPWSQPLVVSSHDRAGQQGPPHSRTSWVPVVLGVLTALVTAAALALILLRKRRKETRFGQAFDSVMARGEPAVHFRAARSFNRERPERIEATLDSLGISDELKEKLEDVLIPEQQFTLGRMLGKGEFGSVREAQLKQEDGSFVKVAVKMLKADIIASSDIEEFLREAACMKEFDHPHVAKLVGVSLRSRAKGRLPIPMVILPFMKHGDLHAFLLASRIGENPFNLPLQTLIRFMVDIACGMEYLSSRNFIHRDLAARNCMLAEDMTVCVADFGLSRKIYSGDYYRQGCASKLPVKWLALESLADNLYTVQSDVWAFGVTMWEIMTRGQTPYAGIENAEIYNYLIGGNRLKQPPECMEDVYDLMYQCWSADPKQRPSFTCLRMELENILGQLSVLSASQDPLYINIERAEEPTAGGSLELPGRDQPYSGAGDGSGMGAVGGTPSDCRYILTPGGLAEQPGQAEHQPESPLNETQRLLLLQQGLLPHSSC

CCOc1cn(-c2ccc(OC)cc2)nc1C(=O)Nc1ccc(Oc2ccnc3cc(OC)c(OC)cc23)cn1 [Compound 1]
IC50 [1]: < 100 nM | Kd (TYRO3): 100 to 1000 nM

CCOc1cn(-c2cccs2)nc1C(=O)Nc1ccc(Oc2ccnc3cc(OC)c(OC)cc23)cn1 [Compound 17]
IC50 [1]: < 100 nM | Kd (TYRO3): < 100 nM

CCOc1cn(-c2ccsc2)nc1C(=O)Nc1ccc(Oc2ccnc3cc(OC)c(OC)cc23)cn1 [Compound 18]
IC50 [1]: < 100 nM | Kd (TYRO3): < 100 nM

CCOc1cn(-c2cccnc2Cl)nc1C(=O)Nc1ccc(Oc2ccnc3cc(OC)c(OC)cc23)cn1 [Compound 19]
IC50 [1]: < 100 nM | Kd (TYRO3): < 100 nM

CCOc1cnn(-c2cccs2)c1C(=O)Nc1ccc(Oc2ccnc3cc(OC)c(OC)cc23)cn1 [Compound 20]
IC50 [1]: < 100 nM | Kd (TYRO3): 100 to 1000 nM

CCOc1cnn(-c2ccsc2)c1C(=O)Nc1ccc(Oc2ccnc3cc(OC)c(OC)cc23)cn1 [Compound 21]
IC50 [1]: < 100 nM | Kd (TYRO3): 100 to 1000 nM

CCOc1cn(-c2cccnc2C)nc1C(=O)Nc1ccc(Oc2ccnc3cc(OC)c(OC)cc23)cn1 [Compound 23]
IC50 [1]: < 100 nM | Kd (TYRO3): < 100 nM

CCOc1cn(-c2ccncc2Cl)nc1C(=O)Nc1ccc(Oc2ccnc3cc(OC)c(OC)cc23)cn1 [Compound 26]
IC50 [1]: < 100 nM | Kd (TYRO3): 100 to 1000 nM

CCOc1cn(CC)nc1C(=O)Nc1ccc(Oc2ccnc3cc(OC)c(OC)cc23)cn1 [Compound 27]
IC50 [1]: < 100 nM | Kd (TYRO3): < 100 nM

CCOc1cn(C)nc1C(=O)Nc1ccc(Oc2ccnc3cc(OC)c(OC)cc23)cn1 [Compound 29]
IC50 [1]: 100 to 1000 nM | Kd (TYRO3): 100 to 1000 nM

CCOc1cnn(C)c1C(=O)Nc1ccc(Oc2ccnc3cc(OC)c(OC)cc23)cn1 [Compound 30]
IC50 [1]: < 100 nM | Kd (TYRO3): ≥ 1000 nM

CCOc1cn(-c2ccc(N(C)C)cc2Cl)nc1C(=O)Nc1ccc(Oc2ccnc3cc(OC)c(OC)cc23)cn1 [Compound 31]
IC50 [1]: < 100 nM | Kd (TYRO3): ≥ 1000 nM

CCOc1cn(-c2cc[nH]c2)nc1C(=O)Nc1ccc(Oc2ccnc3cc(OC)c(OC)cc23)cn1 [Compound 32]
IC50 [1]: < 100 nM | Kd (TYRO3): < 100 nM

CCOc1cn(-c2ccoc2)nc1C(=O)Nc1ccc(Oc2ccnc3cc(OC)c(OC)cc23)cn1 [Compound 33]
IC50 [1]: < 100 nM | Kd (TYRO3): < 100 nM

CCOc1cn(-c2ccncc2C)nc1C(=O)Nc1ccc(Oc2ccnc3cc(OC)c(OC)cc23)cn1 [Compound 34]
IC50 [1]: < 100 nM | Kd (TYRO3): < 100 nM

CCOc1cn(-c2cnccn2)nc1C(=O)Nc1ccc(Oc2ccnc3cc(OC)c(OC)cc23)cn1 [Compound 36]
IC50 [1]: < 100 nM | Kd (TYRO3): < 100 nM

CCOc1cn(CCn2cccn2)nc1C(=O)Nc1ccc(Oc2ccnc3cc(OC)c(OC)cc23)cn1 [Compound 37]
IC50 [1]: 100 to 1000 nM | Kd (TYRO3): 100 to 1000 nM

CCOc1cn(-c2cnsc2)nc1C(=O)Nc1ccc(Oc2ccnc3cc(OC)c(OC)cc23)cn1 [Compound 39]
IC50 [1]: < 100 nM | Kd (TYRO3): < 100 nM

CCOc1cn(-c2ccnnc2)nc1C(=O)Nc1ccc(Oc2ccnc3cc(OC)c(OC)cc23)cn1 [Compound 40]
IC50 [1]: 100 to 1000 nM | Kd (TYRO3): ≥ 1000 nM

CCOc1cn(-c2ccc(C#N)cn2)nc1C(=O)Nc1ccc(Oc2ccnc3cc(OC)c(OC)cc23)cn1 [Compound 43]
IC50 [1]: ≥ 1000 nM | Kd (TYRO3): ≥ 1000 nM

CCOc1oc(-c2cccnc2)nc1C(=O)Nc1ccc(Oc2ccnc3cc(OC)c(OC)cc23)cn1 [Compound 44]
IC50 [1]: < 100 nM | Kd (TYRO3): ≥ 1000 nM

CCOc1sc(-c2cccnc2)nc1C(=O)Nc1ccc(Oc2ccnc3cc(OC)c(OC)cc23)cn1 [Compound 45]
IC50 [1]: < 100 nM | Kd (TYRO3): < 100 nM

CCOc1cn(CC2CCO2)nc1C(=O)Nc1ccc(Oc2ccnc3cc(OC)c(OC)cc23)cn1 (stereo not drawn) [Compound 48]
IC50 [1]: < 100 nM | Kd (TYRO3): < 100 nM

CCOc1cn(-c2cnc(C#N)nc2)nc1C(=O)Nc1ccc(Oc2ccnc3cc(OC)c(OC)cc23)cn1 [Compound 55]
IC50 [1]: < 100 nM | Kd (TYRO3): < 100 nM

CCOc1cn(-c2ccn(C)c2)nc1C(=O)Nc1ccc(Oc2ccnc3cc(OC)c(OC)cc23)cn1 [Compound 56]
IC50 [1]: < 100 nM | Kd (TYRO3): < 100 nM

CCOc1cn(-c2ccco2)nc1C(=O)Nc1ccc(Oc2ccnc3cc(OC)c(OC)cc23)cn1 [Compound 57]
IC50 [1]: < 100 nM | Kd (TYRO3): < 100 nM

CCOc1cnn(-c2ccco2)c1C(=O)Nc1ccc(Oc2ccnc3cc(OC)c(OC)cc23)cn1 [Compound 58]
IC50 [1]: < 100 nM | Kd (TYRO3): 100 to 1000 nM

CCOc1cn(-c2ncco2)nc1C(=O)Nc1ccc(Oc2ccnc3cc(OC)c(OC)cc23)cn1 [Compound 59]
IC50 [1]: < 100 nM | Kd (TYRO3): < 100 nM

CCOc1cn(-c2cnccc2CCCN(C)C)nc1C(=O)Nc1ccc(Oc2ccnc3cc(OC)c(OC)cc23)cn1 [Compound 61]
IC50 [1]: < 100 nM | Kd (TYRO3): < 100 nM

CCOc1cn(CCOC)nc1C(=O)Nc1ccc(Oc2ccnc3cc(OC)c(OC)cc23)cn1 [Compound 64]
IC50 [1]: < 100 nM | Kd (TYRO3): < 100 nM

CCOc1cn(-c2cnccc2CCN(C)C)nc1C(=O)Nc1ccc(Oc2ccnc3cc(OC)c(OC)cc23)cn1 [Compound 65]
IC50 [1]: < 100 nM | Kd (TYRO3): < 100 nM

CCOc1cn(CC(C)=O)nc1C(=O)Nc1ccc(Oc2ccnc3cc(OC)c(OC)cc23)cn1 [Compound 66]
IC50 [1]: < 100 nM | Kd (TYRO3): 100 to 1000 nM

CCOc1cn(C(C)(C)C(=O)NC)nc1C(=O)Nc1ccc(Oc2ccnc3cc(OC)c(OC)cc23)cn1 [Compound 68]
IC50 [1]: < 100 nM | Kd (TYRO3): ≥ 1000 nM

CCOc1cn(-c2cnccc2CN(C)C)nc1C(=O)Nc1ccc(Oc2ccnc3cc(OC)c(OC)cc23)cn1 [Compound 73]
IC50 [1]: < 100 nM | Kd (TYRO3): 100 to 1000 nM

CCOc1cn(C2CCN(C)C2)nc1C(=O)Nc1ccc(Oc2ccnc3cc(OC)c(OC)cc23)cc1F (stereo not drawn) [Compound 212]
IC50 [1]: < 100 nM | Kd (TYRO3): 100 to 1000 nM

CCOc1cnn(C2CCCN(C)C2)c1C(=O)Nc1ccc(Oc2ccnc3cc(OC)c(OC)cc23)cc1F (stereo not drawn) [Compound 213]
IC50 [1]: 100 to 1000 nM | Kd (TYRO3): ≥ 1000 nM

CCOc1cn(Cc2cnccn2)nc1C(=O)Nc1ccc(Oc2ccnc3cc(OC)c(OC)cc23)cc1F [Compound 215]
IC50 [1]: < 100 nM | Kd (TYRO3): < 100 nM

CCOc1cn(C2CCCN(C(C)=O)C2)nc1C(=O)Nc1ccc(Oc2ccnc3cc(OC)c(OC)cc23)cc1F (stereo not drawn) [Compound 224]
IC50 [1]: < 100 nM | Kd (TYRO3): 100 to 1000 nM

CCOc1cn(C2CCCN(C(N)=O)C2)nc1C(=O)Nc1ccc(Oc2ccnc3cc(OC)c(OC)cc23)cc1F (stereo not drawn) [Compound 225]
IC50 [1]: 100 to 1000 nM | Kd (TYRO3): 100 to 1000 nM

CCOc1cn(Cc2cnccc2C)nc1C(=O)Nc1ccc(Oc2ccnc3cc(OC)c(OC)cc23)cc1F [Compound 226]
IC50 [1]: < 100 nM | Kd (TYRO3): 100 to 1000 nM

CCOc1cn(-c2cnccc2C(C)(O)CO)nc1C(=O)Nc1ccc(Oc2ccnc3cc(OC)c(OC)cc23)cc1F (stereo not drawn) [Compound 227]
IC50 [1]: < 100 nM | Kd (TYRO3): < 100 nM

CCOc1cn(-c2nccnc2C(C)(O)CO)nc1C(=O)Nc1ccc(Oc2ccnc3cc(OC)c(OC)cc23)cc1F (stereo not drawn) [Compound 229]
IC50 [1]: < 100 nM | Kd (TYRO3): < 100 nM

CCOc1cn(-c2cnc(N)nc2)nc1C(=O)Nc1ccc(Oc2ccnc3cc(OC(C)C)c(OC)cc23)cc1F [Compound 230]
IC50 [1]: < 100 nM | Kd (TYRO3): ≥ 1000 nM

CCOc1cn(-c2cnccc2CO)nc1C(=O)Nc1ccc(Oc2ccnc3cc(OC(C)C)c(OC)cc23)cc1F [Compound 231]
IC50 [1]: < 100 nM | Kd (TYRO3): < 100 nM

CCOc1cn(-c2cnccc2CO)nc1C(=O)Nc1ccc(Oc2ccnc3cc(OC)c(OC(F)(F)F)cc23)cn1 [Compound 233]
IC50 [1]: < 100 nM | Kd (TYRO3): < 100 nM

Source: patent US10934274B2, “Quinoline derivatives as TAM RTK inhibitors” (Qurient Co., Ltd., priority 2015, dated 2021)
